According to patent US11753447B2, “Cyclic peptides, methods of synthesis, and methods of treatment” (priority 2020, dated 2023):
pIC50: −log10 of the molar value. Numbered stars: 1 amine (or outer) side, 2 acyl side, 3 side chain; on linkers, the order of the positions; unused ones are H or OH. Square brackets hold non-standard residues; d marks the D form. Peptide text beside a SMILES is read from it. X1 = O=C(Cc1ccc(CCN[*:1])cc1)[*:2]

Key:
SARS-CoV-2 = settings: cell-based studies; cited from earlier work
SARS-CoV-2 M^pro [1] = target: T1, SARS-CoV-2 M^pro (Severe acute respiratory syndrome coronavirus 2, UniProt P0DTD1); assay: biochemical; settings: 0.1 μM M^pro, 50 μM fluorogenic substrate, 30 min pre-incubation, 37° C., non-linear regression of initial rates; read-out: IC50 against M^pro
T1 construct: purchased Life Sensors

HEK-293 cells = settings: 72 hours
SARS-CoV-2 M^pro [2] = target: T1, SARS-CoV-2 M^pro; assay: LC/MS analysis of enzyme inhibition assay well solution for cleavage of UCI-1 by M^pro; type: biochemical; settings: 187.5 μM UCI-1 well solution after 4 hours, compared with peptide-1c spike

Compound | SARS-CoV-2 replication (SARS-CoV-2) | further results
CC(C)(C)OC(=O)Nc1cccn([C@@H](CC2CC2)C(=O)N[C@@H](C[C@@H]2CCNC2=O)C(=O)C(=O)NCc2ccccc2)c1=O [13b] | block SARS-CoV-2 replication | 
O=C[C@H](C[C@@H]1CCNC1=O)NC(=O)[C@H](CC1CCCCC1)NC(=O)c1cc2ccccc2[nH]1 [11a] | block SARS-CoV-2 replication | 
Cc1cc(C(=O)NC(C)C(=O)NC(C(=O)NC(CC(C)C)C(=O)NC(C=CC(=O)OCc2ccccc2)CC2CCNC2=O)C(C)C)no1 (centres unmarked) [N3] | block SARS-CoV-2 replication | 
O=C[C@H](C[C@@H]1CCNC1=O)NC(=O)[C@H](Cc1cccc(F)c1)NC(=O)c1cc2ccccc2[nH]1 [11b] | block SARS-CoV-2 replication | 
NCCCC[C@@H]1NC(=O)[C@H](CO)NC(=O)[C@H](CCC(N)=O)NC(=O)[C@H](Cc2ccccc2)NC(=O)Cc2ccc(cc2)CCNC1=O [UCI-1] (cyclo(FQSK[X1])) |  | pIC50 (SARS-CoV-2 M^pro [1]): ~3.80; cytotoxicity (HEK-293 cells; concentrations up to 256 μM, HEK-293): not cytotoxic; LDH release from HEK-293 cells (HEK-293 cells; highest concentration evaluated (256 μM)): little or no LDH release; cleavage by M^pro (SARS-CoV-2 M^pro [2]): not appreciably cleaved
